# Reference: ChEMBL document CHEMBL1125004, “Chemistry and pharmacology of the non-benzodiazepine anxiolytic enciprazine and related compounds” (1990)
# Calls of active or inactive are those of the source. The calls are words filed in the database; no cut-off is given here.
# Assays:
# Rattus norvegicus [1] = assay: Effect on diarrhea after oral administration of 20 mg/kg in rat was determined; '++' strong effect; format: functional, organism-based; parameters: dose 20 mg/kg
# [2] = Ratio of ED50 (ethanol) to that of ED50 (fighting); format: functional
# Rattus norvegicus [3] = assay: Effect on piloerection after oral administration of 20 mg/kg in rat was determined; '++' strong effect; format: functional, organism-based; parameters: dose 20 mg/kg
# Rattus norvegicus [4] = assay: Effect on jumping after oral administration of 20 mg/kg in rat was determined; +' weak effect; format: functional, organism-based; parameters: dose 20 mg/kg
# Rattus norvegicus [5] = assay: Effect on restlessness after oral administration of 10 mg/kg in rat was determined; '+' weak effect; format: functional, organism-based; parameters: dose 10 mg/kg
# [6] = Ratio of ED50 (hexobarbital) to that of ED50 (fighting); format: functional
# Rattus norvegicus [7] = assay: Effect on jumping after oral administration of 10 mg/kg in rat was determined; '-' No effect; format: functional, organism-based; parameters: dose 10 mg/kg
# [8] = Ratio of ED50 (rotarod) to that of ED50 (fighting); format: functional
# Rattus norvegicus [9] = assay: Effect on tremor after oral administration of 10 mg/kg in rat was determined; '-' No effect; format: functional, organism-based; parameters: dose 10 mg/kg
# Rattus norvegicus [10] = assay: Effect on diarrhea after oral administration of 10 mg/kg in rat was determined; '+' weak effect; format: functional, organism-based; parameters: dose 10 mg/kg
# Rattus norvegicus [11] = assay: Effect on tremor after oral administration of 20 mg/kg in rat was determined; +' weak effect; format: functional, organism-based; parameters: dose 20 mg/kg
# Mus musculus [12] = species: Mus musculus; assay: animal or person; settings: po
# Rattus norvegicus [13] = assay: Effect on piloerection after oral administration of 10 mg/kg in rat was determined; '+' weak effect; format: functional, organism-based; parameters: dose 10 mg/kg
# Rattus norvegicus [14] = assay: Effect on restlessness after oral administration of 20 mg/kg in rat was determined; +' weak effect; format: functional, organism-based; parameters: dose 20 mg/kg
# Mus musculus [15] = species: Mus musculus; assay: animal or person
# Rattus norvegicus [16] = assay: Effect on salivation after oral administration of 20 mg/kg in rat was determined; +' weak effect; format: functional, organism-based; parameters: dose 20 mg/kg
# Mus musculus [17] = species: Mus musculus; assay: animal or person; remark: listed apart in the source
# Description: Ataxic activity in mice by rotarod test; Range (2.99-5.35)
# Mus musculus [18] = species: Mus musculus; assay: animal or person; remark: listed apart in the source
# Description: Effect on alcohol induced sleep was determined in ethanol potentiation test; Range (0.41-1.79)
# Rattus norvegicus [19] = assay: Effect on salivation after oral administration of 10 mg/kg in rat was determined; '-' No effect; format: functional, organism-based; parameters: dose 10 mg/kg
# Monkey [20] = assay: Tested for ability to maintain self-administration after administration of 0.003 mg/kg in monkey 2037 Range (2-6); format: functional, Cercopithecidae
# Monkey [21] = assay: Tested for ability to maintain self-administration after administration of 0.03 mg/kg in monkey 2036 Range (2-3); format: functional, Cercopithecidae
# Monkey [22] = assay: Tested for ability to maintain self-administration after administration of 0.001 mg/kg in monkey 3038 Range (2-5); format: functional, Cercopithecidae
# Monkey [23] = assay: Tested for ability to maintain self-administration after administration of 0.003 mg/kg in monkey 9083 Range (13-21); format: functional, Cercopithecidae
# Monkey [24] = assay: Tested for ability to maintain self-administration after administration of 0.003 mg/kg in monkey 3017 Range (1-2); format: functional, Cercopithecidae
# Monkey [25] = assay: Tested for ability to maintain self-administration after administration of 0.3 mg/kg in monkey 3038 (1-2); format: functional, Cercopithecidae
# Monkey [26] = assay: Tested for ability to maintain self-administration after administration of 0.3 mg/kg in monkey 2036 (1-5); format: functional, Cercopithecidae
# Monkey [27] = assay: Tested for ability to maintain self-administration after administration of 0.3 mg/kg in monkey 9083 (1-4); format: functional, Cercopithecidae
# Monkey [28] = assay: Tested for ability to maintain self-administration after administration of 0.01 mg/kg in monkey 9079 Range (1-3); format: functional, Cercopithecidae
# Monkey [29] = assay: Tested for ability to maintain self-administration after administration of 0.003 mg/kg in monkey 9079 Range (1-6); format: functional, Cercopithecidae
# Monkey [30] = assay: Tested for ability to maintain self-administration after administration of 0.3 mg/kg in monkey 9079 (0-2); format: functional, Cercopithecidae
# Monkey [31] = assay: Tested for ability to maintain self-administration after administration of 0.3 mg/kg in monkey 2037 (0-4); format: functional, Cercopithecidae
# Monkey [32] = assay: Tested for ability to maintain self-administration after administration of 0.03 mg/kg in monkey 2037 Range (7-9); format: functional, Cercopithecidae
# Monkey [33] = assay: Tested for ability to maintain self-administration after administration of 0.03 mg/kg in monkey 9079 Range (2-24); format: functional, Cercopithecidae
# Monkey [34] = assay: Tested for ability to maintain self-administration after administration of 0.03 mg/kg in monkey 3038 Range (1-10); format: functional, Cercopithecidae
# Monkey [35] = assay: Tested for ability to maintain self-administration after administration of 0.03 mg/kg in monkey 9083 Range (7-11); format: functional, Cercopithecidae
# Monkey [36] = assay: Tested for ability to maintain self-administration after administration of 0.003 mg/kg in monkey 3038 Range (1-7); format: functional, Cercopithecidae
# Monkey [37] = assay: Tested for ability to maintain self-administration after administration of 0.3 mg/kg in monkey 3017 (0-1); format: functional, Cercopithecidae
# Monkey [38] = assay: Tested for ability to maintain self-administration after administration of 0.003 mg/kg in monkey 2036 Range (5-9); format: functional, Cercopithecidae
# Monkey [39] = assay: Tested for ability to maintain self-administration after administration of 0.03 mg/kg in monkey 3017 Range (1-7); format: functional, Cercopithecidae
# Monkey [40] = assay: Tested for ability to maintain self-administration after administration of 1 mg/kg in monkey 9079 (0-3); format: functional, Cercopithecidae
# Monkey [41] = assay: Tested for ability to maintain self-administration after administration of 0.03 mg/kg in monkey 2037 Range (63-73); format: functional, Cercopithecidae
# Monkey [42] = assay: Tested for ability to maintain self-administration after administration of 0.56 mg/kg in monkey 9079 Range (15-18); format: functional, Cercopithecidae
# Monkey [43] = assay: Tested for ability to maintain self-administration after administration of 0.01 mg/kg in monkey 2037 Range (33-51); format: functional, Cercopithecidae
# Monkey [44] = assay: Tested for ability to maintain self-administration after administration of 0.01 mg/kg in monkey 2036 Range (25-28); format: functional, Cercopithecidae
# Monkey [45] = assay: Tested for ability to maintain self-administration after administration of 0.1 mg/kg in monkey 3038 Range (42-58); format: functional, Cercopithecidae
# Monkey [46] = assay: Tested for ability to maintain self-administration after administration of 0.3 mg/kg in monkey 9079 Range (32-53); format: functional, Cercopithecidae
# Monkey [47] = assay: Tested for ability to maintain self-administration after administration of 0.3 mg/kg in monkey 2036 Range (10-12); format: functional, Cercopithecidae
# Monkey [48] = assay: Tested for ability to maintain self-administration after administration of 0.1 mg/kg in monkey 2036 Range (37-43); format: functional, Cercopithecidae
# Monkey [49] = assay: Tested for ability to maintain self-administration after administration of 0.1 mg/kg in monkey 9083 Range (20-32); format: functional, Cercopithecidae
# Monkey [50] = assay: Tested for ability to maintain self-administration after administration of 0.03 mg/kg in monkey 3038 Range (0-14); format: functional, Cercopithecidae
# Monkey [51] = assay: Tested for ability to maintain self-administration after administration of 0.03 mg/kg in monkey 3017 Range (26-29); format: functional, Cercopithecidae
# Monkey [52] = assay: Tested for ability to maintain self-administration after administration of 0.1 mg/kg in monkey 9079 Range (5-20); format: functional, Cercopithecidae
# Monkey [53] = assay: Tested for ability to maintain self-administration after administration of 0.1 mg/kg in monkey 3017 Range ([…]); format: functional, Cercopithecidae
# Monkey [54] = assay: Tested for ability to maintain self-administration after administration of 0.01 mg/kg in monkey 3017 Range (14-22); format: functional, Cercopithecidae
# Monkey [55] = assay: Tested for ability to maintain self-administration after administration of 0.3 mg/kg in monkey 3038 Range (12-32); format: functional, Cercopithecidae
# Monkey [56] = assay: Tested for ability to maintain self-administration after administration of 0.03 mg/kg in monkey 2036 Range (30-36); format: functional, Cercopithecidae
# Monkey [57] = assay: Tested for ability to maintain self-administration after administration of 0.3 mg/kg in monkey 9083 Range (14-23); format: functional, Cercopithecidae
# Monkey [58] = assay: Tested for ability to maintain self-administration after administration of 0.3 mg/kg in monkey 3017 Range (28-50); format: functional, Cercopithecidae
# Monkey [59] = assay: Tested for ability to maintain self-administration after administration of 0.1 mg/kg in monkey 2037; format: functional, Cercopithecidae
# Monkey [60] = assay: Tested for ability to maintain self-administration after administration of 0.03 mg/kg in monkey 9083 Range (19-47); format: functional, Cercopithecidae
structure (smiles),measurement,setting,value
CN1C(=O)CN=C(c2ccccc2)c2cc(Cl)ccc21 [DIAZEPAM],Effect,Rattus norvegicus [1],Active
same,Therapeutic index,[2],0.6
same,Effect,Rattus norvegicus [3],Active
same,Effect,Rattus norvegicus [4],Partially active
same,Effect,Rattus norvegicus [5],Partially active
same,Therapeutic index,[6],2.1
same,Effect,Rattus norvegicus [7],inactive
same,Therapeutic index,[8],2.9
same,Effect,Rattus norvegicus [9],inactive
same,Effect,Rattus norvegicus [10],Partially active
same,Effect,Rattus norvegicus [11],Partially active
same,ED50,Mus musculus [12],1.4 mg/kg
same,Effect,Rattus norvegicus [13],Partially active
same,Effect,Rattus norvegicus [14],Partially active
same,ED50,Mus musculus [15],3 mg/kg
same,Effect,Rattus norvegicus [16],Partially active
same,ED50,Mus musculus [17],4 mg/kg
same,ED50,Mus musculus [18],0.85 mg/kg
same,Effect,Rattus norvegicus [19],inactive
COc1ccccc1N1CCN(CC(O)COc2cc(OC)c(OC)c(OC)c2)CC1 (stereo not given) [ENCIPRAZINE],Effect,Monkey [20],4.3
same,Effect,Monkey [21],2.3
same,Effect,Monkey [22],3.5
same,Effect,Monkey [23],17.7
same,Effect,Monkey [24],1.7
same,Effect,Monkey [25],1.3
same,Effect,Monkey [26],3
same,Effect,Monkey [27],2.7
same,Effect,Monkey [28],2
same,Effect,Monkey [29],3
same,Effect,Monkey [30],1
same,Effect,Monkey [31],2
same,Effect,Monkey [32],7.7
same,Effect,Monkey [33],13.7
same,Effect,Monkey [34],4.3
same,Effect,Monkey [35],9
same,Effect,Monkey [36],4
same,Effect,Monkey [37],0.3
same,Effect,Monkey [38],7
same,Effect,Monkey [39],4.3
same,Effect,Monkey [40],1.3
CCN(CC)CCN1C(=O)CN=C(c2ccccc2F)c2cc(Cl)ccc21 [FLURAZEPAM],Effect,Monkey [41],68
same,Effect,Monkey [42],16.7
same,Effect,Monkey [43],40.7
same,Effect,Monkey [44],26
same,Effect,Monkey [45],50
same,Effect,Monkey [46],44.7
same,Effect,Monkey [47],11
same,Effect,Monkey [48],40
same,Effect,Monkey [49],26.3
same,Effect,Monkey [50],8
same,Effect,Monkey [51],27.5
same,Effect,Monkey [52],12.5
same,Effect,Monkey [53],54.7
same,Effect,Monkey [54],17.7
same,Effect,Monkey [55],22
same,Effect,Monkey [56],33
same,Effect,Monkey [57],18.3
same,Effect,Monkey [58],40.3
same,Effect,Monkey [59],33
same,Effect,Monkey [60],29
